What all share (assay type): cell-based
One assay has as its system AR / CBP ternary complex. The assay is described as follows: Ternary complex formation assay (sandwich ELISA, AR capture / CBP detection) in VCaP cell lysates. As to conditions: 1.5 hours treatment, sandwich ELISA (AR capture, CBP or p300 detection). Put shortly:
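VCaP cells (50K/well, 5% charcoal-stripped FBS, ≥3 days) treated with bifunctional compound for 1.5 h, then lysed 30 min at 4 °C. AR captured on anti-AR (AR 441) plates; bound CBP or p300 detected by rabbit mAb plus HRP secondary. QuantaRed chemifluorescence read at ex 570/em 585, immediately and at 5 and 15 min.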

The subject of a further assay is VCaP cells. The assay is described as follows: VCaP growth inhibition assay. As to conditions: 30 pM R1881, 9 days, CTG. In a few lines:
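VCaP cells in phenol red-free DMEM/5% CSS, pre-incubated 72 h, then stimulated with R1881 (final 30 pM) and treated with 1:5 serial dilutions (final 100 nM to 10 fM) for 9 days at 37 °C. Viability by CellTiter-Glo luminescence; IC50 from 4-parameter logistic fit of RLU vs concentration.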

For the next assay, the system named is HEK-293 cells. The assay is described as follows: HEK-293 growth inhibition assay. As to conditions: 3 days, CTG. As to the method:
Cluster plates are returned to the incubator (37*C/5% CO2) for 24 hours prior to treatment. […] Cluster plates are returned to the incubator for 3 days.
After the 3-day treatment period, 100 uL media was removed from each well by aspiration and 100 uL room temperature CTG reagent (Promega Cat #G7573) is added back to each well. The cluster plates are placed on a shaker and incubated at room temperature for 20 minutes. Following this shaking/incubation, cluster plates are read on a luminometer (BMG ClarioStar). IC50 values are obtained by graphing the RLU data vs. compound concentration with nonlinear regression 4-parameter logistic curves (GraphPad Prism).

SMILES strings stand for the structures.

What is called EC50 is the midpoint of the concentration-response curve. Higher therefore signals a need for much substance. Usually IC50 stands for the concentration that gives 50% inhibition. On to `CNC(=O)N1CCc2c(c(N3CCCc4cc(-c5cnn(C)c5)c(C(F)F)cc43)nn2C2CCN(Cc3ncc(C(=O)NC4C(C)(C)C(Oc5ccc(C#N)c(Cl)c5)C4(C)C)cn3)CC2)C1` (stereo not drawn) [Compound 91, 1-[1-[[5-[[3-(3-chloro-4-cyano-phenoxy)-2,2,4,4-tetramethyl-cyclobutyl]carbamoyl]pyrimidin-2-yl]methyl]-4-piperidyl]-3-[7-(difluoromethyl)-6-(1-methylpyrazol-4-yl)-3,4-dihydro-2H-quinolin-1-yl]-N-methyl-6,7-dihydro-4H-pyrazolo[4,3-c]pyridine-5-carboxamide], for which the EC50 in the assay on AR / CBP ternary complex is above 100 nM. The figures for the IC50 in the assay on VCaP cells and in the assay on HEK-293 cells were above 100 nM and above 10000 nM, respectively.

Consider `CC(=O)N1CCc2c(c(N3CCCc4cc(-c5cnn(C)c5)c(C(F)F)cc43)nn2C2CCN(C3CCN(c4ncc(C(=O)NC5C(C)(C)C(Oc6ccc(C#N)c(Cl)c6)C5(C)C)cn4)CC3)CC2)C1` (stereo not drawn) [Compound 85, 2-[4-[4-[5-acetyl-3-[7-(difluoromethyl)-6-(1-methylpyrazol-4-yl)-3,4-dihydro-2H-quinolin-1-yl]-6,7-dihydro-4H-pyrazolo[4,3-c]pyridin-1-yl]-1-piperidyl]-1-piperidyl]-N-[3-(3-chloro-4-cyano-phenoxy)-2,2,4,4-tetramethyl-cyclobutyl]pyrimidine-5-carboxamide], for which the EC50 in the assay on AR / CBP ternary complex was below 1 nM. For the same molecule, the IC50 was 0.1 to 1 nM with VCaP cells and above 10000 nM with HEK-293 cells.

For `CC(=O)N1CCc2c(c(N3CCCc4cc(-c5cnn(C)c5)c(C(F)F)cc43)nn2C2CCN(C(=O)CN3CCN(c4ncc(C(=O)NC5C(C)(C)C(Oc6ccc(C#N)c(Cl)c6)C5(C)C)cn4)CC3)C2)C1` (stereo not drawn) [Compound 64, 2-[4-[2-[3-[5-acetyl-3-[7-(difluoromethyl)-6-(1-methylpyrazol-4-yl)-3,4-dihydro-2H-quinolin-1-yl]-6,7-dihydro-4H-pyrazolo[4,3-c]pyridin-1-yl]pyrrolidin-1-yl]-2-oxo-ethyl]piperazin-1-yl]-N-[3-(3-chloro-4-cyano-phenoxy)-2,2,4,4-tetramethyl-cyclobutyl]pyrimidine-5-carboxamide], the EC50 in the assay on AR / CBP ternary complex is below 1 nM. Further, the results for the IC50 with VCaP cells and in the assay with HEK-293 cells were 0.1 to 1 nM and above 10000 nM, respectively.

`CC(=O)N1CCc2c(c(N3CCCc4cc(-c5cnn(C)c5)c(C(F)F)cc43)nn2C2CCN(S(=O)(=O)C3CCN(c4ncc(C(=O)NC5C(C)(C)C(Oc6ccc(C#N)c(Cl)c6)C5(C)C)cn4)CC3)CC2)C1` (stereo not drawn) [Compound 28, 2-[4-[[4-[5-acetyl-3-[7-(difluoromethyl)-6-(1-methylpyrazol-4-yl)-3,4-dihydro-2H-quinolin-1-yl]-6,7-dihydro-4H-pyrazolo[4,3-c]pyridin-1-yl]-1-piperidyl]sulfonyl]-1-piperidyl]-N-[3-(3-chloro-4-cyano-phenoxy)-2,2,4,4-tetramethyl-cyclobutyl]pyrimidine-5-carboxamide] registered an EC50 in the assay on AR / CBP ternary complex below 1 nM. Also, the figures for the IC50 with VCaP cells and in the assay on HEK-293 cells were at most 0.1 nM and above 10000 nM, respectively.

In the case of `CNC(=O)N1CCc2c(c(N3CCCc4cc(-c5cnn(C)c5)c(C(F)F)cc43)nn2C2CCN(C(=O)CCN3CCN(c4ncc(C(=O)NC5C(C)(C)C(Oc6ccc(C#N)c(Cl)c6)C5(C)C)cn4)CC3)CC2)C1` (stereo not drawn) [Compound 108, 1-[1-[3-[4-[5-[[3-(3-chloro-4-cyano-phenoxy)-2,2,4,4-tetramethyl-cyclobutyl]carbamoyl]pyrimidin-2-yl]piperazin-1-yl]propanoyl]-4-piperidyl]-3-[7-(difluoromethyl)-6-(1-methylpyrazol-4-yl)-3,4-dihydro-2H-quinolin-1-yl]-N-methyl-6,7-dihydro-4H-pyrazolo[4,3-c]pyridine-5-carboxamide], the EC50 in the assay on AR / CBP ternary complex was below 1 nM. The IC50 with VCaP cells is at most 0.1 nM; in the assay with HEK-293 cells it was above 10000 nM.

`CC(=O)N1CCc2c(c(N3CCCc4cc(-c5cnn(C)c5)c(C(F)F)cc43)nn2C2CCN(C[C@@H]3CCN(c4ncc(C(=O)NC5C(C)(C)C(Oc6ccc(C#N)c(Cl)c6)C5(C)C)cn4)C[C@@H]3C)CC2)C1` (stereo partly drawn) [Compound 275, 2-[(3R,4R)-4-[[4-[5-acetyl-3-[7-(difluoromethyl)-6-(1-methylpyrazol-4-yl)-3,4-dihydro-2H-quinolin-1-yl]-6,7-dihydro-4H-pyrazolo[4,3-c]pyridin-1-yl]-1-piperidyl]methyl]-3-methyl-1-piperidyl]-N-[3-(3-chloro-4-cyano-phenoxy)-2,2,4,4-tetramethyl-cyclobutyl]pyrimidine-5-carboxamide] showed an EC50 in the assay with AR / CBP ternary complex below 1 nM. In addition, the IC50 is at most 0.1 nM in the assay with VCaP cells and above 1000 nM with HEK-293 cells.

For `CNC(=O)N1CCc2c(c(N3CCCc4cc(-c5cnn(C)c5)c(C(F)F)cc43)nn2C2CCN(C(=O)COCCCN3CCN(c4ncc(C(=O)NC5C(C)(C)C(Oc6ccc(C#N)c(Cl)c6)C5(C)C)cn4)CC3)CC2)C1` (stereo not drawn) [Compound 105, 1-[1-[2-[3-[4-[5-[[3-(3-chloro-4-cyano-phenoxy)-2,2,4,4-tetramethyl-cyclobutyl]carbamoyl]pyrimidin-2-yl]piperazin-1-yl]propoxy]acetyl]-4-piperidyl]-3-[7-(difluoromethyl)-6-(1-methylpyrazol-4-yl)-3,4-dihydro-2H-quinolin-1-yl]-N-methyl-6,7-dihydro-4H-pyrazolo[4,3-c]pyridine-5-carboxamide], the EC50 with AR / CBP ternary complex was below 1 nM. For the same molecule, the IC50 is 0.1 to 1 nM in the assay on VCaP cells and above 10000 nM in the assay with HEK-293 cells.

The molecule `CC(=O)N1CCc2c(c(N3CCCc4cc(-c5cnn(C)c5)c(C(F)F)cc43)nn2C2CCN(C(=O)CN3CCN(c4ncc(C(=O)NC5C(C)(C)C(Oc6ccc(C#N)c(Cl)c6)C5(C)C)cn4)CC3)CC2)C1` (stereo not drawn) [Compound 96, 2-[4-[2-[4-[5-acetyl-3-[7-(difluoromethyl)-6-(1-methylpyrazol-4-yl)-3,4-dihydro-2H-quinolin-1-yl]-6,7-dihydro-4H-pyrazolo[4,3-c]pyridin-1-yl]-1-piperidyl]-2-oxo-ethyl]piperazin-1-yl]-N-[3-(3-chloro-4-cyano-phenoxy)-2,2,4,4-tetramethyl-cyclobutyl]pyrimidine-5-carboxamide] had an EC50 with AR / CBP ternary complex below 1 nM. In addition, the IC50 is at most 0.1 nM in the assay on VCaP cells and above 10000 nM with HEK-293 cells.

`CNC(=O)N1CCc2c(c(N3CCCc4cc(-c5cnn(C)c5)c(C(F)F)cc43)nn2C2CCN(C(=O)CN3CCN(c4ccc(C(=O)NC5C(C)(C)C(Oc6ccc(C#N)c(Cl)c6)C5(C)C)cn4)CC3)CC2)C1` (stereo not drawn) [Compound 42, 1-[1-[2-[4-[5-[[3-(3-chloro-4-cyano-phenoxy)-2,2,4,4-tetramethyl-cyclobutyl]carbamoyl]-2-pyridyl]piperazin-1-yl]acetyl]-4-piperidyl]-3-[7-(difluoromethyl)-6-(1-methylpyrazol-4-yl)-3,4-dihydro-2H-quinolin-1-yl]-N-methyl-6,7-dihydro-4H-pyrazolo[4,3-c] pyridine-5-carboxamide] came in with an EC50 with AR / CBP ternary complex below 1 nM. The IC50 in the assay on VCaP cells was at most 0.1 nM; in the assay on HEK-293 cells, above 10000 nM.

`CC(=O)N1CCc2c(c(N3CCCc4cc(-c5cnn(C)c5)c(C(F)F)cc43)nn2C2CN(C(=O)CN3CCN(c4ncc(C(=O)NC5C(C)(C)C(Oc6ccc(C#N)c(Cl)c6)C5(C)C)cn4)CC3)C2)C1` (stereo not drawn) [Compound 65, 2-[4-[2-[3-[5-acetyl-3-[7-(difluoromethyl)-6-(1-methylpyrazol-4-yl)-3,4-dihydro-2H-quinolin-1-yl]-6,7-dihydro-4H-pyrazolo[4,3-c]pyridin-1-yl]azetidin-1-yl]-2-oxo-ethyl]piperazin-1-yl]-N-[3-(3-chloro-4-cyano-phenoxy)-2,2,4,4-tetramethyl-cyclobutyl]pyrimidine-5-carboxamide] gave an EC50 with AR / CBP ternary complex below 1 nM. In addition, the figures for the IC50 in the assay with VCaP cells and in the assay with HEK-293 cells were at most 0.1 nM and above 10000 nM, respectively.

Consider `CNC(=O)N1CCc2c(c(N3CCCc4cc(-c5cnn(C)c5)c(C(F)F)cc43)nn2C2CCN(C(=O)COCCN3CCN(c4ncc(C(=O)NC5C(C)(C)C(Oc6ccc(C#N)c(Cl)c6)C5(C)C)cn4)CC3)CC2)C1` (stereo not drawn) [Compound 106, 1-[1-[2-[2-[4-[5-[[3-(3-chloro-4-cyano-phenoxy)-2,2,4,4-tetramethyl-cyclobutyl]carbamoyl]pyrimidin-2-yl]piperazin-1-yl]ethoxy]acetyl]-4-piperidyl]-3-[7-(difluoromethyl)-6-(1-methylpyrazol-4-yl)-3,4-dihydro-2H-quinolin-1-yl]-N-methyl-6,7-dihydro-4H-pyrazolo[4,3-c]pyridine-5-carboxamide], for which the half-maximal effective concentration (EC50) in the assay on AR / CBP ternary complex was below 1 nM. For the same molecule, the IC50 in the assay on VCaP cells was at most 0.1 nM; in the assay on HEK-293 cells, above 10000 nM.

On to `CC(=O)N1CCc2c(c(N3CCCc4cc(-c5cnn(C)c5)c(C(F)F)cc43)nn2C2CCN(CC3CCN(c4ncc(C(=O)NC5C(C)(C)C(Oc6ccc(C#N)c(Cl)c6)C5(C)C)cn4)CC3)CC2)C1` (stereo not drawn) [Compound 84, 2-[4-[[4-[5-acetyl-3-[7-(difluoromethyl)-6-(1-methylpyrazol-4-yl)-3,4-dihydro-2H-quinolin-1-yl]-6,7-dihydro-4H-pyrazolo[4,3-c]pyridin-1-yl]-1-piperidyl]methyl]-1-piperidyl]-N-[3-(3-chloro-4-cyano-phenoxy)-2,2,4,4-tetramethyl-cyclobutyl]pyrimidine-5-carboxamide], for which the EC50 in the assay on AR / CBP ternary complex is below 1 nM. The values for the IC50 in the assay on VCaP cells and with HEK-293 cells were at most 0.1 nM and above 10000 nM, respectively.
